US20180353443A1, “CURCUMIN-BASED COMPOSITIONS & METHODS OF USE THEREOF” (priority 2015, published 2018)

Legend:
Type in all cases: cell-based
miRNA148a = assay: RT qPCR of miRNA148a levels in BV2 cells; details: 22 μg/ml curcuminoid, 30 min pre-treatment, with or without LPS, FIG. 3
Procedure: Reverse transcriptase (RT) quantitative PCR (RT qPCR) was performed to measure miRNA 148a levels in cells that were treated with curcumin I, II, or III, or a control. More particularly, six-well plates were seeded with BV2 cells at a concentration of about 1.5×10^6 BV2 cells per well. Drug (curcumin I, II, or III) treatment was carried out in the same manner as was executed for the western blot experimentation described in Example 3 below. Ten wells were prepared and, upon confluence, the next day the drug treatment was designed to evaluate basal influence of curcumin extract, curcumin I, curcumin II, curcumin III, as well as each curcumin drug with LPS stimulation. After 30 minutes of incubation with the drug treatment, LPS was used to induce the cells in each well labelled to be induced by LPS.
RNA was ultimately extracted from the cells to determine the levels of miRNA148a. A Qiagen miRNeasy Mini Kit (Cat. No. 217004) was used to extract total RNA along with miRNA. The miRNA was reverse transcribed to cDNA using a gene-specific RT primer and the miScript II RT Kit by Qiagen (Cat. No. 218161). An miRNA148a primer assay was acquired from Qiagen (Cat. No. 00003556). […]

NFkB-p65 = assay: Western blot of cytoplasmic and nuclear NFkB-p65 (nucleotranslocation) in BV2 cells; details: 22.0 μg/ml curcuminoid, LPS induction, FIGS. 4 and 5
Procedure: (§1) Western blot analysis was performed in multiple varying formats before optimization was achieved. The BV2 microglia cell line was cultured in Dulbecco's Modified Eagle's Medium (DMEM)—complete medium. The complete medium consisted of DMEM, 1% Ampicillin, and 10% Fetal Bovine Serum (FBS). BV2 microglia cells, at a cell count of approximately 2×10^6, were seeded in each well (6 wells per plate) with 2.0 ml complete medium and cultured overnight in a ThermaForma HepaFilter Series II Co2 Incubator at 37° Celsius. Upon establishing confluence, subconfluent cells were washed out and the wells were prepared with drug pre-treatment after overnight incubation.
(§2) The test drugs (curcuminoids) were procured as follows: curcumin I research standard (03926) (ChromaDex Irvine, Calif. USA) (97.7% purity); curcumin II research standard (04230) (ChromaDex Irvine, Calif. USA) (97.3%); curcumin III research standard (B6938) (Sigma-Aldrich St. Louis, Mo., USA) (97.7% purity); curcumin extract (curcumin I—77.7%, curcumin II—16.9%, curcumin III—0.9%) research standard (03928) (ChromaDex Irvine, Calif. USA) (95.3% purity); and Lipopolysaccharide (LPS) from E. Coli (L2630) (Sigma-Aldrich St. Louis, Mo., USA).
(§3) Curcuminoids are not soluble in aqueous medium due to their hydrophobic characteristic. However, curcuminoid extracts are soluble in polar organic solvents, such as DMSO and acetone. In this Example, each curcuminoid preparation was first dissolved in DMSO. DMSO was used in the drug preparation at 0.2%. The drug/DMSO solution was subsequently dissolved in DMEM to achieve a final drug concentration for each curcuminoid preparation tested—22.0 μg/ml curcuminoid. […]
(§4) Total protein concentration for each fraction was determined using a Bio Rad Protein Assay that is based on the Bradford Assay (dye-binding method). […]
(§5) The targets analyzed in the Western Blot included NFkB-p65 and its nucleocytoplasmic translocation, as well as kinases (including MSK1) and their covalent modifications upstream of and involved in the regulation of NFkB. […]

[1] = test system: NFkB-p65 serine 276 phosphorylation; assay: Western blot of NFkB-p65 phosphorylated at serine 276 in BV2 cells; details: 22.0 μg/ml curcuminoid, LPS induction, FIGS. 6 and 7
Procedure: as §1, §2, §3, §4, §5

MSK1 = assay: Western blot of cytoplasmic and nuclear MSK1 protein levels in BV2 cells; details: 22.0 μg/ml curcuminoid, LPS induction
Procedure: as §1, with “incubation. […]” for “incubation.”
as §4, §5

[2] = test system: MSK1 serine 376 phosphorylation; assay: Western blot of MSK1 phosphorylated at serine 376 in BV2 cells; details: 22.0 μg/ml curcuminoid, LPS induction, FIGS. 10 and 11
Procedure: as §1, with “incubation. […]” for “incubation.”
as §4, §5

SMILES | effect on miRNA148a levels (miRNA148a) | inhibition of NFkB-p65 nucleotranslocation (cytosolic and nuclear NFkB-p65) (NFkB-p65) | inhibition of NFkB-p65 serine 276 phosphorylation [1] | effect on MSK1 protein levels in the cytoplasm (MSK1; FIG. 8) | effect on MSK1 protein levels in the nucleus (MSK1; FIG. 9) | inhibition of MSK1 serine 376 phosphorylation [2]
O=C(/C=C/c1ccc(O)cc1)CC(=O)/C=C/c1ccc(O)cc1 [curcumin III, (1E,6E)-1,7-bis(4-hydroxyphenyl)hepta-1,6-diene-3,5-dione] | significantly increase | not significantly inhibited | moderately inhibit | significantly inhibited and downregulated | significantly inhibited and downregulated | inhibition
COc1cc(/C=C/C(=O)CC(=O)/C=C/c2ccc(O)cc2)ccc1O [curcumin II, (1E,6E)-1-(4-Hydroxy-3-methoxyphenyl)-7-(4-hydroxyphenyl)hepta-1,6-diene-3,5-dione] | inhibits | not significantly inhibited | moderately inhibit | – | – | inhibit
COc1cc(/C=C/C(=O)/C=C(O)/C=C/c2ccc(O)c(OC)c2)ccc1O [curcumin I, (1E,6E)-1,7-Bis(4-hydroxy-3-methoxyphenyl)-1,6-heptadiene-3,5-dione] | – | not significantly inhibited | moderately inhibit | – | – | –
